According to paper PMC9151520 (Archives of Toxicology, 2022):
Where “and” joins values, the source holds several entries; their conditions need not be identical. Identical values can stand only once. Counter-ions that a name gives are not always drawn. Like-named read-outs stand apart in the source and are kept apart here.

Tests used:
[1] = tested on: p53 signaling (p53RE-bla HCT-116 cells); assay: cells; assay type: cell-based
[2] = tested on: p53 signaling (p53RE-bla HCT-116 cells)
[3] = tested on: p53 signaling (p53RE-bla HCT-116 cells); details: for EC50: read-out: p53 activation EC50, HLM
[4] = Homo sapiens, HCT-116, read-out: p53 activation EC50, primary screening
[5] = Homo sapiens, HCT-116, read-out: p53 activation efficacy, primary screening
[6] = Homo sapiens, HCT-116, read-out: EC50, p53 activation, cherry pick confirmation
[7] = Homo sapiens, HCT-116, read-out: EC50, p53 activation, primary screening
[8] = Homo sapiens, HCT-116, read-out: Efficacy, p53 activation, cherry pick confirmation
[9] = Homo sapiens, HCT-116, read-out: Efficacy, p53 activation, primary screening
[10] = read-out: p53 activation EC50, cherry pick confirmation
[11] = read-out: p53 activation EC50, primary screening
[12] = read-out: EC50, p53 activation, primary screening

CCC(C)c1cc([N+](=O)[O-])cc([N+](=O)[O-])c1OC(=O)OC(C)C (stereo not shown) [Dinobuton]
p53 activation EC50, cherry pick confirmation [1]: inactive | p53 activation efficacy, cherry pick confirmation [1]: inactive | EC50 [1, 4]: 49.5 µM | Emax [1, 5]: 74.7% | p53 activation EC50, cherry pick confirmation [2]: inactive | p53 activation EC50, primary screening [2]: inactive | p53 activation efficacy, cherry pick confirmation [2]: inactive | p53 activation efficacy, primary screening [2]: inactive | p53 activation EC50, cherry pick confirmation [3]: inactive | p53 activation EC50, primary screening [3]: inactive | p53 activation efficacy, cherry pick confirmation [3]: inactive | p53 activation efficacy, primary screening [3]: inactive | Viability EC50, cherry pick confirmation (p53RE-bla HCT-116 cells): inactive | Viability EC50, primary screening (p53RE-bla HCT-116 cells): inactive | Viability efficacy, cherry pick confirmation (p53RE-bla HCT-116 cells): inactive | Viability efficacy, primary screening (p53RE-bla HCT-116 cells): inactive

O=c1cc(-c2ccccc2)oc2cc(O)cc(O)c12 [Chrysin]
EC50 [1, 6]: 45 µM | EC50 [1, 7]: 49.5 µM | Emax [1, 8]: 43.6% | Emax [1, 9]: 38.6% | EC50, p53 activation, cherry pick confirmation [2]: inactive | EC50, p53 activation, primary screening [2]: inactive | Efficacy, p53 activation, cherry pick confirmation [2]: inactive | Efficacy, p53 activation, primary screening [2]: inactive | EC50, p53 activation, cherry pick confirmation [3]: inactive | EC50, p53 activation, primary screening [3]: inactive | Efficacy, p53 activation, cherry pick confirmation [3]: inactive | Efficacy, p53 activation, primary screening [3]: inactive | EC50, viability, cherry pick confirmation (p53RE-bla HCT-116 cells): inactive | EC50, viability, primary screening (p53RE-bla HCT-116 cells): inactive | Efficacy, viability, cherry pick confirmation (p53RE-bla HCT-116 cells): inactive | Efficacy, viability, primary screening (p53RE-bla HCT-116 cells): inactive

Acriflavine hydrochloride
p53 activation efficacy, cherry pick confirmation [1]: 281.114 | p53 activation efficacy, primary screening [1]: 193.527 | EC50 [1, 10]: 2.46 µM | EC50 [1, 11]: 5.41 µM | p53 activation EC50, cherry pick confirmation [2]: inactive | p53 activation EC50, primary screening [2]: inactive | p53 activation efficacy, cherry pick confirmation [2]: inactive | p53 activation efficacy, primary screening [2]: inactive | p53 activation EC50, cherry pick confirmation [3]: inactive | p53 activation EC50, primary screening [3]: inactive | p53 activation efficacy, cherry pick confirmation [3]: inactive | p53 activation efficacy, primary screening [3]: inactive | Viability EC50, cherry pick confirmation (p53RE-bla HCT-116 cells): inactive | Viability EC50, primary screening (p53RE-bla HCT-116 cells): inactive | Viability efficacy, cherry pick confirmation (p53RE-bla HCT-116 cells): inactive | Viability efficacy, primary screening (p53RE-bla HCT-116 cells): inactive

CCOC(=O)c1c(N)sc2c1CCN(Cc1ccccc1)C2 [Tinoridine]
p53 activation EC50 [1]: inactive | p53 activation efficacy [1]: inactive | p53 activation EC50 [2]: inactive | p53 activation EC50 [3]: inactive | Viability EC50 (p53RE-bla HCT-116 cells): inactive | Viability efficacy (p53RE-bla HCT-116 cells): inactive

CCCSP(=S)(OCC)Oc1ccc(SC)cc1 (stereo not shown) [Sulprofos]
p53 activation EC50, cherry pick confirmation [1]: inactive | p53 activation EC50, primary screening [1]: inactive | p53 activation efficacy, cherry pick confirmation [1]: inactive | p53 activation efficacy, primary screening [1]: inactive | EC50 [2, 10]: 6.95 µM | p53 activation EC50, cherry pick confirmation [3]: inactive | Viability EC50, cherry pick confirmation (p53RE-bla HCT-116 cells): inactive | Viability EC50, primary screening (p53RE-bla HCT-116 cells): inactive | Viability efficacy, cherry pick confirmation (p53RE-bla HCT-116 cells): inactive | Viability efficacy, primary screening (p53RE-bla HCT-116 cells): inactive

Cc1cc(=O)oc2cc(N(C)C)ccc12 [7-(Dimethylamino)-4-methylcoumarin]
p53 activation efficacy, cherry pick confirmation [1]: 79.8427 | p53 activation efficacy, primary screening [1]: 78.774 | EC50 [1, 10]: 29.5 µM | EC50 [1, 11]: 35.2 µM | p53 activation EC50, cherry pick confirmation [2]: inactive | p53 activation efficacy, cherry pick confirmation [2]: inactive | p53 activation EC50, cherry pick confirmation [3]: inactive | p53 activation efficacy, cherry pick confirmation [3]: inactive | Viability EC50, cherry pick confirmation (p53RE-bla HCT-116 cells): inactive | Viability EC50, primary screening (p53RE-bla HCT-116 cells): inactive | Viability efficacy, cherry pick confirmation (p53RE-bla HCT-116 cells): inactive | Viability efficacy, primary screening (p53RE-bla HCT-116 cells): inactive

CNC(=O)O/N=C/C(C)(C)SC [Aldicarb]
p53 activation EC50 [1]: inactive | p53 activation efficacy [1]: inactive | p53 activation EC50 [2]: inactive | p53 activation EC50 [3]: inactive | Viability EC50 (p53RE-bla HCT-116 cells): inactive | Viability efficacy (p53RE-bla HCT-116 cells): inactive

Nc1cc(Cl)ccc1O [2-Amino-4-chlorophenol]
EC50, p53 activation, cherry pick confirmation [1]: inactive | Efficacy, p53 activation, cherry pick confirmation [1]: inactive | EC50 [1, 7]: 38.2 µM | Emax [1, 9]: 53.8% | EC50, p53 activation, cherry pick confirmation [2]: inactive | EC50, p53 activation, primary screening [2]: inactive | Efficacy, p53 activation, cherry pick confirmation [2]: inactive | Efficacy, p53 activation, primary screening [2]: inactive | EC50, p53 activation, cherry pick confirmation [3]: inactive | EC50, p53 activation, primary screening [3]: inactive | Efficacy, p53 activation, cherry pick confirmation [3]: inactive | Efficacy, p53 activation, primary screening [3]: inactive | EC50, viability, cherry pick confirmation (p53RE-bla HCT-116 cells): inactive | EC50, viability, primary screening (p53RE-bla HCT-116 cells): inactive | Efficacy, viability, cherry pick confirmation (p53RE-bla HCT-116 cells): inactive | Efficacy, viability, primary screening (p53RE-bla HCT-116 cells): inactive

CC(=O)O[C@@H]1C(=O)O[C@H]2[C@@H]1OC(=O)[C@@H]2OC(C)=O [Aceglatone]
EC50, p53 activation, cherry pick confirmation [1]: inactive | Efficacy, p53 activation, cherry pick confirmation [1]: inactive | EC50 [1, 7]: 21.5 µM | Emax [1, 9]: 37.3% | EC50, p53 activation, cherry pick confirmation [2]: inactive | EC50, p53 activation, primary screening [2]: inactive | Efficacy, p53 activation, cherry pick confirmation [2]: inactive | Efficacy, p53 activation, primary screening [2]: inactive | EC50, p53 activation, cherry pick confirmation [3]: inactive | EC50, p53 activation, primary screening [3]: inactive | Efficacy, p53 activation, cherry pick confirmation [3]: inactive | Efficacy, p53 activation, primary screening [3]: inactive | EC50, viability, cherry pick confirmation (p53RE-bla HCT-116 cells): inactive | EC50, viability, primary screening (p53RE-bla HCT-116 cells): inactive | Efficacy, viability, cherry pick confirmation (p53RE-bla HCT-116 cells): inactive | Efficacy, viability, primary screening (p53RE-bla HCT-116 cells): inactive

CCC[S+]([O-])c1ccc2[nH]c(NC(=O)OC)nc2c1 (stereo not shown) [Albendazole oxide]
EC50 ([1]; Homo sapiens, HCT-116, read-out: p53 activation EC50, cherry pick confirmation): 20.5 µM | EC50 [1, 4]: 12.8 µM | Emax ([1]; Homo sapiens, HCT-116, read-out: p53 activation efficacy, cherry pick confirmation): 37.2% | Emax [1, 5]: 33.8% | p53 activation EC50, cherry pick confirmation [2]: inactive | p53 activation EC50, primary screening [2]: inactive | p53 activation efficacy, cherry pick confirmation [2]: inactive | p53 activation efficacy, primary screening [2]: inactive | p53 activation EC50, cherry pick confirmation [3]: inactive | p53 activation EC50, primary screening [3]: inactive | p53 activation efficacy, cherry pick confirmation [3]: inactive | p53 activation efficacy, primary screening [3]: inactive | Viability EC50, cherry pick confirmation (p53RE-bla HCT-116 cells): inactive | Viability EC50, primary screening (p53RE-bla HCT-116 cells): inactive | Viability efficacy, cherry pick confirmation (p53RE-bla HCT-116 cells): inactive | Viability efficacy, primary screening (p53RE-bla HCT-116 cells): inactive

CN(C)c1ccc(C(=O)c2ccc(N(C)C)cc2)cc1 [Michler's ketone]
p53 activation EC50, cherry pick confirmation [1]: inactive | p53 activation efficacy, cherry pick confirmation [1]: inactive | EC50 [1, 4]: 2.8 µM | Emax [1, 5]: 37.9% | p53 activation EC50, cherry pick confirmation [2]: inactive | p53 activation EC50, primary screening [2]: inactive | p53 activation efficacy, cherry pick confirmation [2]: inactive | p53 activation efficacy, primary screening [2]: inactive | p53 activation EC50, cherry pick confirmation [3]: inactive | p53 activation EC50, primary screening [3]: inactive | p53 activation efficacy, cherry pick confirmation [3]: inactive | p53 activation efficacy, primary screening [3]: inactive | Viability EC50, cherry pick confirmation (p53RE-bla HCT-116 cells): inactive | Viability EC50, primary screening (p53RE-bla HCT-116 cells): inactive | Viability efficacy, cherry pick confirmation (p53RE-bla HCT-116 cells): inactive | Viability efficacy, primary screening (p53RE-bla HCT-116 cells): inactive

CC(C)c1ccc2cc(C(C)C)ccc2c1 [2,6-Diisopropylnaphthalene]
Efficacy, p53 activation, cherry pick confirmation [1]: inactive | Efficacy, p53 activation, cherry pick confirmation [2]: inactive | Efficacy, p53 activation, primary screening [2]: inactive

Oc1c(Cl)cc(Cl)cc1Sc1cc(Cl)cc(Cl)c1O [Bithionol]
Efficacy, p53 activation, primary screening [1]: 93.9867 | EC50 [1, 6]: 20.3 µM | Emax [1, 8]: 74% | EC50 [1, 12]: 39.6 µM | EC50, p53 activation, cherry pick confirmation [2]: inactive | EC50, p53 activation, primary screening [2]: inactive | Efficacy, p53 activation, cherry pick confirmation [2]: inactive | Efficacy, p53 activation, primary screening [2]: inactive | EC50, p53 activation, cherry pick confirmation [3]: inactive | EC50, p53 activation, primary screening [3]: inactive | Efficacy, p53 activation, cherry pick confirmation [3]: inactive | Efficacy, p53 activation, primary screening [3]: inactive

Irinotecan hydrochloride
Efficacy, p53 activation, cherry pick confirmation [1]: 86.836 | Efficacy, p53 activation, primary screening [1]: 70.7017 | EC50 [1, 12]: 4.18 µM

O=C(c1ccc(O)c(O)c1)c1ccc(O)cc1O [2,3',4,4'-Tetrahydroxybenzophenone]
p53 activation efficacy, cherry pick confirmation [1]: inactive

Phenylmercuric acetate
p53 activation Efficacy, No MS [1]: 66.4107% and 63.4503% | p53 activation EC50, RLM [2]: inactive | p53 activation Efficacy, RLM [2]: inactive | p53 activation EC50, HLM [3]: inactive | EC50 [3]: 12.5 µM

O=C1CCCc2c1cc1ccc3cccc4ccc2c1c34 [9,10-Dihydrobenzo[a]pyren-7(8H)-one]
p53 activation EC50, RLM [2]: inactive | p53 activation Efficacy, RLM [2]: inactive | p53 activation EC50, HLM [3]: inactive | EC50 [3]: 9.29 µM | Viability EC50, HLM (p53RE-bla HCT-116 cells): inactive | Viability EC50, No MS (p53RE-bla HCT-116 cells): inactive | Viability EC50, RLM (p53RE-bla HCT-116 cells): inactive | Viability Efficacy, HLM (p53RE-bla HCT-116 cells): inactive | Viability Efficacy, No MS (p53RE-bla HCT-116 cells): inactive | Viability Efficacy, RLM (p53RE-bla HCT-116 cells): inactive

CSc1ccc2c(c1)N(CCC1CCCCN1C)c1ccccc1S2 (stereo not shown) [Thioridazine hydrochloride]
Emax [1, 8]: 51.8% | Emax [1, 9]: 64.5% | EC50, p53 activation, cherry pick confirmation [2]: inactive | EC50, p53 activation, primary screening [2]: inactive | Efficacy, p53 activation, cherry pick confirmation [2]: inactive | Efficacy, p53 activation, primary screening [2]: inactive | EC50, p53 activation, cherry pick confirmation [3]: inactive | EC50, p53 activation, primary screening [3]: inactive | Efficacy, p53 activation, cherry pick confirmation [3]: inactive | Efficacy, p53 activation, primary screening [3]: inactive
